System: plants
Experiment: Test D pre-emergence, other plants of Tables D1 and D3
Assay type: in vivo
Details: preemergent, 20 DAA
Outline: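 Damage was rated visually from 0 (none) to 100 (total), at 20 DAA for pre-emergence and 15 d for post-emergence. Plants grew from safener-treated seed in a glasshouse at 24/18° C. or 20/16° C. day/night, 65% humidity, watered twice daily.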

## COc1c(F)cccc1NC(=O)C1C(=O)N(C)CC1c1cc(C(F)(F)F)n(C)n1 (racemic) [Compound 18]
Rate 15
  damage to plant (100=total damage to plant; 0=no damage to plant), ABUTH: 0
  damage to plant (100=total damage to plant; 0=no damage to plant), AMARE: 0
  damage to plant (100=total damage to plant; 0=no damage to plant), BIDPI: 0
  damage to plant (100=total damage to plant; 0=no damage to plant), BRAPL: 10
  damage to plant (100=total damage to plant; 0=no damage to plant), CYPES: 0
  damage to plant (100=total damage to plant; 0=no damage to plant), DIGSA: 0
  damage to plant (100=total damage to plant; 0=no damage to plant), ECHCG: 0
  damage to plant (100=total damage to plant; 0=no damage to plant), ELEIN: 0
  damage to plant (100=total damage to plant; 0=no damage to plant), EPHHL: 0
  damage to plant (100=total damage to plant; 0=no damage to plant), GLXMA: 0
  damage to plant (100=total damage to plant; 0=no damage to plant), IPOHE: 0
  damage to plant (100=total damage to plant; 0=no damage to plant), ORYSA: 0
  damage to plant (100=total damage to plant; 0=no damage to plant), PANMI: 0
  damage to plant (100=total damage to plant; 0=no damage to plant), SETFA: 0
  damage to plant (100=total damage to plant; 0=no damage to plant), SORVU: 0
Rate 30
  damage to plant (100=total damage to plant; 0=no damage to plant), ABUTH: 0
  damage to plant (100=total damage to plant; 0=no damage to plant), AMARE: 0
  damage to plant (100=total damage to plant; 0=no damage to plant), BIDPI: 0
  damage to plant (100=total damage to plant; 0=no damage to plant), BRAPL: 60
  damage to plant (100=total damage to plant; 0=no damage to plant), CYPES: 0
  damage to plant (100=total damage to plant; 0=no damage to plant), DIGSA: 80
  damage to plant (100=total damage to plant; 0=no damage to plant), ECHCG: 30
  damage to plant (100=total damage to plant; 0=no damage to plant), ELEIN: 0
  damage to plant (100=total damage to plant; 0=no damage to plant), EPHHL: 0
  damage to plant (100=total damage to plant; 0=no damage to plant), GLXMA: 0
  damage to plant (100=total damage to plant; 0=no damage to plant), IPOHE: 0
  damage to plant (100=total damage to plant; 0=no damage to plant), ORYSA: 0
  damage to plant (100=total damage to plant; 0=no damage to plant), PANMI: 0
  damage to plant (100=total damage to plant; 0=no damage to plant), SETFA: 0
  damage to plant (100=total damage to plant; 0=no damage to plant), SORVU: 0
Rate 60
  damage to plant (100=total damage to plant; 0=no damage to plant), ABUTH: 0
  damage to plant (100=total damage to plant; 0=no damage to plant), AMARE: 0
  damage to plant (100=total damage to plant; 0=no damage to plant), BIDPI: 0
  damage to plant (100=total damage to plant; 0=no damage to plant), BRAPL: 70
  damage to plant (100=total damage to plant; 0=no damage to plant), CYPES: 0
  damage to plant (100=total damage to plant; 0=no damage to plant), DIGSA: 90
  damage to plant (100=total damage to plant; 0=no damage to plant), ECHCG: 70
  damage to plant (100=total damage to plant; 0=no damage to plant), ELEIN: 0
  damage to plant (100=total damage to plant; 0=no damage to plant), EPHHL: 0
  damage to plant (100=total damage to plant; 0=no damage to plant), GLXMA: 0
  damage to plant (100=total damage to plant; 0=no damage to plant), IPOHE: 0
  damage to plant (100=total damage to plant; 0=no damage to plant), ORYSA: 0
  damage to plant (100=total damage to plant; 0=no damage to plant), PANMI: 0
  damage to plant (100=total damage to plant; 0=no damage to plant), SETFA: 80
  damage to plant (100=total damage to plant; 0=no damage to plant), SORVU: 0
Rate 130
  damage to plant (100=total damage to plant; 0=no damage to plant), ABUTH: 0
  damage to plant (100=total damage to plant; 0=no damage to plant), AMARE: 0
  damage to plant (100=total damage to plant; 0=no damage to plant), BIDPI: 0
  damage to plant (100=total damage to plant; 0=no damage to plant), BRAPL: 80
  damage to plant (100=total damage to plant; 0=no damage to plant), CYPES: 0
  damage to plant (100=total damage to plant; 0=no damage to plant), DIGSA: 90
  damage to plant (100=total damage to plant; 0=no damage to plant), ECHCG: 90
  damage to plant (100=total damage to plant; 0=no damage to plant), ELEIN: 0
  damage to plant (100=total damage to plant; 0=no damage to plant), EPHHL: 0
  damage to plant (100=total damage to plant; 0=no damage to plant), GLXMA: 0
  damage to plant (100=total damage to plant; 0=no damage to plant), IPOHE: 0
  damage to plant (100=total damage to plant; 0=no damage to plant), ORYSA: 0
  damage to plant (100=total damage to plant; 0=no damage to plant), PANMI: 0
  damage to plant (100=total damage to plant; 0=no damage to plant), SETFA: 90
  damage to plant (100=total damage to plant; 0=no damage to plant), SORVU: 0
Rate 250
  damage to plant (100=total damage to plant; 0=no damage to plant), ABUTH: 10
  damage to plant (100=total damage to plant; 0=no damage to plant), AMARE: 0
  damage to plant (100=total damage to plant; 0=no damage to plant), BIDPI: 0
  damage to plant (100=total damage to plant; 0=no damage to plant), BRAPL: 80
  damage to plant (100=total damage to plant; 0=no damage to plant), CYPES: 0
  damage to plant (100=total damage to plant; 0=no damage to plant), DIGSA: 90
  damage to plant (100=total damage to plant; 0=no damage to plant), ECHCG: 90
  damage to plant (100=total damage to plant; 0=no damage to plant), ELEIN: 0
  damage to plant (100=total damage to plant; 0=no damage to plant), EPHHL: 10
  damage to plant (100=total damage to plant; 0=no damage to plant), GLXMA: 0
  damage to plant (100=total damage to plant; 0=no damage to plant), IPOHE: 0
  damage to plant (100=total damage to plant; 0=no damage to plant), ORYSA: 0
  damage to plant (100=total damage to plant; 0=no damage to plant), PANMI: 0
  damage to plant (100=total damage to plant; 0=no damage to plant), SETFA: 90
  damage to plant (100=total damage to plant; 0=no damage to plant), SORVU: 0
Rate 500
  damage to plant (100=total damage to plant; 0=no damage to plant), ABUTH: 30
  damage to plant (100=total damage to plant; 0=no damage to plant), AMARE: 0
  damage to plant (100=total damage to plant; 0=no damage to plant), BIDPI: 0
  damage to plant (100=total damage to plant; 0=no damage to plant), BRAPL: 90
  damage to plant (100=total damage to plant; 0=no damage to plant), CYPES: 0
  damage to plant (100=total damage to plant; 0=no damage to plant), DIGSA: 100
  damage to plant (100=total damage to plant; 0=no damage to plant), ECHCG: 90
  damage to plant (100=total damage to plant; 0=no damage to plant), ELEIN: 0
  damage to plant (100=total damage to plant; 0=no damage to plant), EPHHL: 20
  damage to plant (100=total damage to plant; 0=no damage to plant), GLXMA: 0
  damage to plant (100=total damage to plant; 0=no damage to plant), IPOHE: 0
  damage to plant (100=total damage to plant; 0=no damage to plant), ORYSA: 0
  damage to plant (100=total damage to plant; 0=no damage to plant), PANMI: 0
  damage to plant (100=total damage to plant; 0=no damage to plant), SETFA: 90
  damage to plant (100=total damage to plant; 0=no damage to plant), SORVU: 10

Source: patent publication US20220281848A1, “PYRAZOLE-SUBSTITUTED PYRROLIDINONES AS HERBICIDES” (FMC Corporation, priority 2019, published 2022)
